Measurements as given in patent publication US20180071317A1, “USE OF AGENTS THAT ALTER THE PERITUMORAL ENVIRONMENT FOR THE TREATMENT OF CANCER” (SERVICIO ANDALUZ DE SALUD, priority 2011, published 2018).

What was measured:
Format in all cases: cell-based
[1] = tested on: human primary macrophages (PHM); experiment: Marker expression (immunohistochemistry) in human primary macrophages with SP alone or with NK1 antagonists; conditions: SP 1 μM; 48 h
[2] = tested on: fibroblasts (PHF) co-cultured with tumor cells of human colon adenocarcinoma (SW-403); experiment: Marker expression (IHC) in PHF co-cultured with SW-403 tumor cells; conditions: co-culture with SW-403; SP 1 μM; 48 h
[3] = tested on: fibroblasts (PHF) co-cultured with tumor cells of human Edwing sarcoma (MHH-ES-1); experiment: Marker expression (IHC) in PHF co-cultured with MHH-ES-1 tumor cells; conditions: PHF co-cultured with MHH-ES-1 + SP
Experimental: (§1) All cultures were maintained 48 hours, following which the same cells were included in paraffin blocks for subsequent analysis of the expression of different markers by immunohistochemistry (see Example 1). […] All experiments were carried out sixfold. Analyzed markers in fibroblast cells (stromal cells) were: TGF-α, TGF-β1, TGF-β2, TGF-β3, SPARC, MMP-3, MMP-7, MMP-9, MMP-11, MMP-13 and MMP-14.

[4] = tested on: fibroblasts (PHF) co-cultured with human glioma tumor cells (GAMG); experiment: Marker expression (IHC) in PHF co-cultured with GAMG tumor cells; conditions: co-culture with GAMG; SP 1 μM; 48 h;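 note: percentage of PHF fibroblasts positive for each marker, cultured in fresh plasma from a healthy donor, six replicates, with fibroblasts cultured alone as reference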
Experimental: as §1

[5] = tested on: co-cultures of tumor cells-endothelial cells (C-12210); experiment: Inhibition/survival in co-cultures of primary human tumor cells and endothelial cells; conditions: survival in reference to control, SP 1 μM
Experimental: To check that the interaction of primary tumor cells extracted directly from human with human vascular endothelial cells, promotes the survival of both cell types, co-cultures were performed microvascular endothelial cells from juvenile foreskins (PromoCell GmbH, Sickingenstraβe 63/65, D-69126 Heidelberg, Germany; reference C-12210) with tumor cells obtained directly from primary human tumors.
A total of 6 wells containing tumor cells were used as control for survival. Another 6 wells containing tumor cells were cultured with addition of endothelial cells.
Subsequently, cells were embedded in paraffin for analysis by immunohistochemistry. In order to identify the different cell types and quantity of them [They were labelled with primary antibodies specific for human endothelial cells (anti-CD31), carcinoma cells (Anti-Cytokeratins Spread Spectrum), glioma (Anti-glial fibrillary acidic protein), fibrosarcoma and malignant fibrous histiocytoma (Anti-Smooth Muscle Actin), Ewing sarcoma (Anti-CD99), Melanoma (Anti-HMB45), leukemias and lymphomas (Anti-Common Antigen Leucitario) and myeloma (anti CD 138). All antibodies are distributed by Dako and were used at the same concentration which is supplied (supplied pre-diluted—“ready to use”).

[6] = tested on: fibroblasts (PHF) cells co-cultured with human T lymphoma tumor (DERL-7); experiment: Marker expression (IHC) in PHF co-cultured with DERL-7 tumor cells; conditions: PHF co-cultured with DERL-7 + SP
Experimental: All cultures were maintained 48 hours, following which the same cells were included in paraffin blocks for subsequent analysis of the expression of different markers by immunohistochemistry (see Example 1). The primary antibodies used to perform immunohistochemical assays and their concentration are detailed in Example 2. All experiments were carried out sixfold. Analyzed markers in fibroblast cells (stromal cells) were: TGF-α, TGF-β1, TGF-β2, TGF-β3, SPARC, MMP-3, MMP-7, MMP-9, MMP-11, MMP-13 and MMP-14.

[7] = tested on: fibroblasts (PHF) co-cultured with tumor cells of human endometrial carcinoma (AN3-CA); experiment: Marker expression (IHC) in PHF co-cultured with AN3-CA tumor cells; conditions: co-culture with AN3-CA; SP 1 μM; 48 h;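 note: cultured in fresh healthy-donor blood plasma with added antibiotic-antimycotic, run in six replicates, values give percent of fibroblasts positive for each marker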
Experimental: as §1

[8] = Carcinoma of lung, (Small cell carcinoma in Table 36)
[9] = Carcinoma of lung, Non Small Cell Carcinoma in Table 36
[10] = Carcinoma of thyroid, (Follicular Carcinoma in Table 36)
[11] = Carcinoma of thyroid, (Papillary Carcinoma in Table 36)

CSCC[C@H](NC(=O)[C@H](CC(C)C)NC(=O)CNC(=O)[C@H](Cc1ccccc1)NC(=O)[C@H](Cc1ccccc1)NC(=O)[C@H](CCC(N)=O)NC(=O)[C@H](CCC(N)=O)NC(=O)[C@@H]1CCCN1C(=O)[C@H](CCCCN)NC(=O)[C@@H]1CCCN1C(=O)[C@@H](N)CCCNC(=N)N)C(N)=O [SP]
macrophages expressing EGF [1]: 27.4 ± 1.1% | macrophages expressing MMP-9 [1]: 24.3 ± 1.4% | macrophages expressing VEGF [1]: 29.6 ± 2.1% | PHF cells expressing MMP-3 [2]: 46.4 ± 1.9% | PHF cells expressing MMP-7 [2]: 53.1 ± 2.2% | PHF cells expressing MMP-9 [2]: 55.7 ± 1.6% | PHF cells expressing MMP-11 [2]: 26.4 ± 2.6% | PHF cells expressing MMP-13 [2]: 46.5 ± 3.7% | PHF cells expressing MMP-14 [2]: 51.3 ± 3.6% | PHF cells expressing SPARC [2]: 48 ± 1.6% | PHF cells expressing TGF-α [2]: 42.5 ± 1% | PHF cells expressing TGF-β1 [2]: 34.3 ± 1.2% | PHF cells expressing TGF-β2 [2]: 42.5 ± 1.5% | PHF cells expressing TGF-β3 [2]: 44 ± 1.9% | cells expressing MMP-3 [3]: 43.5 ± 3.7% | cells expressing MMP-7 [3]: 56.7 ± 4.8% | cells expressing MMP-9 [3]: 54.4 ± 2.4% | cells expressing MMP-11 [3]: 28.4 ± 3.8% | cells expressing MMP-13 [3]: 46.6 ± 3.6% | cells expressing MMP-14 [3]: 49.6 ± 4.2% | cells expressing SPARC [3]: 46.5 ± 3.2% | cells expressing TGF-α [3]: 36.4 ± 3.1% | cells expressing TGF-β1 [3]: 35.5 ± 2.1% | cells expressing TGF-β2 [3]: 42.6 ± 5.1% | cells expressing TGF-β3 [3]: 42.4 ± 1.6% | PHF cells expressing MMP-3 [4]: 43.4 ± 2.8% | PHF cells expressing MMP-7 [4]: 57.1 ± 3.8% | PHF cells expressing MMP-9 [4]: 52.3 ± 2.4% | PHF cells expressing MMP-11 [4]: 27.5 ± 3.8% | PHF cells expressing MMP-13 [4]: 45.4 ± 3.6% | PHF cells expressing MMP-14 [4]: 49.3 ± 3.5% | PHF cells expressing SPARC [4]: 51.2 ± 3.3% | PHF cells expressing TGF-α [4]: 42.5 ± 3.1% | PHF cells expressing TGF-β1 [4]: 33.6 ± 3.1% | PHF cells expressing TGF-β2 [4]: 40.7 ± 2.1% | PHF cells expressing TGF-β3 [4]: 51 ± 1.6% | Endothelial cells co-cultured with tumor cells + SP ([5]; Carcinoma of Colon): 243 ± 4% | Tumor cells co-cultured with endothelial cells + SP ([5]; Carcinoma of Colon): 253 ± 4% | Endothelial cells co-cultured with tumor cells + SP ([5]; Carcinoma of Pancreas): 287 ± 3% | Tumor cells co-cultured with endothelial cells + SP ([5]; Carcinoma of Pancreas): 252 ± 4% | Endothelial cells co-cultured with tumor cells + SP ([5]; Carcinoma of breast): 281 ± 4% | Tumor cells co-cultured with endothelial cells + SP ([5]; Carcinoma of breast): 253 ± 5% | Endothelial cells co-cultured with tumor cells + SP ([5]; Carcinoma of cervix): 292 ± 4% | Tumor cells co-cultured with endothelial cells + SP ([5]; Carcinoma of cervix): 260 ± 4% | Endothelial cells co-cultured with tumor cells + SP ([5]; Carcinoma of endometrial): 283 ± 5% | Tumor cells co-cultured with endothelial cells + SP ([5]; Carcinoma of endometrial): 252 ± 3% | Endothelial cells co-cultured with tumor cells + SP [5, 8]: 294 ± 2% | Tumor cells co-cultured with endothelial cells + SP [5, 8]: 264 ± 3% | Endothelial cells co-cultured with tumor cells + SP [5, 9]: 274 ± 5% | Tumor cells co-cultured with endothelial cells + SP [5, 9]: 245 ± 6% | Endothelial cells co-cultured with tumor cells + SP ([5]; Carcinoma of ovarian): 282 ± 4% | Tumor cells co-cultured with endothelial cells + SP ([5]; Carcinoma of ovarian): 254 ± 4% | Endothelial cells co-cultured with tumor cells + SP ([5]; Carcinoma of prostate): 270 ± 4% | Tumor cells co-cultured with endothelial cells + SP ([5]; Carcinoma of prostate): 269 ± 1% | Endothelial cells co-cultured with tumor cells + SP ([5]; Carcinoma of stomach): 251 ± 3% | Tumor cells co-cultured with endothelial cells + SP ([5]; Carcinoma of stomach): 260 ± 4% | Endothelial cells co-cultured with tumor cells + SP [5, 10]: 260 ± 5% | Tumor cells co-cultured with endothelial cells + SP [5, 10]: 240 ± 6% | Endothelial cells co-cultured with tumor cells + SP [5, 11]: 265 ± 2% | Tumor cells co-cultured with endothelial cells + SP [5, 11]: 230 ± 4% | Endothelial cells co-cultured with tumor cells + SP ([5]; Fibrosarcoma): 249 ± 5% | Tumor cells co-cultured with endothelial cells + SP ([5]; Fibrosarcoma): 257 ± 3% | Endothelial cells co-cultured with tumor cells + SP ([5]; Glioma): 238 ± 6% | Tumor cells co-cultured with endothelial cells + SP ([5]; Glioma): 247 ± 5% | Endothelial cells co-cultured with tumor cells + SP ([5]; Hodgkin's Lymphoma): 248 ± 5% | Tumor cells co-cultured with endothelial cells + SP ([5]; Hodgkin's Lymphoma): 265 ± 4% | Endothelial cells co-cultured with tumor cells + SP ([5]; Leukemia B): 278 ± 4% | Tumor cells co-cultured with endothelial cells + SP ([5]; Leukemia B): 265 ± 6% | Endothelial cells co-cultured with tumor cells + SP ([5]; Leukemia T): 276 ± 4% | Tumor cells co-cultured with endothelial cells + SP ([5]; Leukemia T): 256 ± 6% | Endothelial cells co-cultured with tumor cells + SP ([5]; Malignant fibrous histiocytoma): 246 ± 4% | Tumor cells co-cultured with endothelial cells + SP ([5]; Malignant fibrous histiocytoma): 245 ± 3% | Endothelial cells co-cultured with tumor cells + SP ([5]; Melanoma): 267 ± 4% | Tumor cells co-cultured with endothelial cells + SP ([5]; Melanoma): 245 ± 2% | Endothelial cells co-cultured with tumor cells + SP ([5]; Myeloma): 267 ± 2% | Tumor cells co-cultured with endothelial cells + SP ([5]; Myeloma): 232 ± 3% | Endothelial cells co-cultured with tumor cells + SP ([5]; Neuroblastoma): 258 ± 3% | Tumor cells co-cultured with endothelial cells + SP ([5]; Neuroblastoma): 256 ± 5% | Endothelial cells co-cultured with tumor cells + SP ([5]; Non-Hodgkin's Lymphoma B): 254 ± 7% | Tumor cells co-cultured with endothelial cells + SP ([5]; Non-Hodgkin's Lymphoma B): 267 ± 5% | Endothelial cells co-cultured with tumor cells + SP ([5]; Non-Hodgkin's Lymphoma T): 256 ± 4% | Tumor cells co-cultured with endothelial cells + SP ([5]; Non-Hodgkin's Lymphoma T): 276 ± 4% | Endothelial cells co-cultured with tumor cells + SP ([5]; Renal carcinoma): 282 ± 4% | Tumor cells co-cultured with endothelial cells + SP ([5]; Renal carcinoma): 260 ± 4% | Endothelial cells co-cultured with tumor cells + SP ([5]; Sarcoma of Ewing): 234 ± 5% | Tumor cells co-cultured with endothelial cells + SP ([5]; Sarcoma of Ewing): 236 ± 4% | cells expressing MMP-3 [6]: 63.4 ± 3.7% | cells expressing MMP-7 [6]: 66.1 ± 4.8% | cells expressing MMP-9 [6]: 62.3 ± 3.4% | cells expressing MMP-11 [6]: 67.8 ± 4.8% | cells expressing MMP-13 [6]: 61 ± 5.3% | cells expressing MMP-14 [6]: 58.4 ± 3.5% | cells expressing SPARC [6]: 67 ± 4.2% | cells expressing TGF-α [6]: 62.5 ± 3.1% | cells expressing TGF-β1 [6]: 64.5 ± 4.3% | cells expressing TGF-β2 [6]: 70.6 ± 4.1% | cells expressing TGF-β3 [6]: 61 ± 5.6% | PHF cells expressing MMP-3 [7]: 44.2 ± 2.7% | PHF cells expressing MMP-7 [7]: 54.4 ± 2.1% | PHF cells expressing MMP-9 [7]: 54.3 ± 1.6% | PHF cells expressing MMP-11 [7]: 29.4 ± 1.8% | PHF cells expressing MMP-13 [7]: 49 ± 3.4% | PHF cells expressing MMP-14 [7]: 45.2 ± 3.5% | PHF cells expressing SPARC [7]: 49 ± 1.5% | PHF cells expressing TGF-α [7]: 42.4 ± 2% | PHF cells expressing TGF-β1 [7]: 33.3 ± 3.1% | PHF cells expressing TGF-β2 [7]: 43.5 ± 1.1% | PHF cells expressing TGF-β3 [7]: 44 ± 1.56%
